Data: patent publication US7148191B2, “Antigenic composition” (Intercell AG, priority 2000, dated 2006)

Tests used:
[1] = system: peptide-specific IFN-γ-producing T cells in spleen or peripheral blood; test: IFN-γ ELISPOT of peripheral blood leukocytes or spleen cells (systemic response) after injection of OVA257-264-peptide mixtures; type: in vivo, mice (C57B1/6); conditions: Example 11, FIG. 11; selected time points after one single injection
Experimental: To investigate whether the immune response induced by one single injection of peptide with pIC/pR is systemic, the rest of the animals (four per group) was bled from the tail vein at selected time points after injection, peripheral blood leukocytes (PBLs) were isolated, re-stimulated either with the relevant peptide, pIC, pR, ConA (positive control) or medium alone (background) and the number of IFN-γ-secreting T lymphocytes was determined using an ELISPOT assay. Assays were carried out in duplicates. Each spot represents a single IFN-γ-producing T cell. Spots were counted using a Biosys reader (Biosys, Germany). Number of background spots was subtracted from all samples. Results are expressed as the number of spots/1×10^6 cells±SD of duplicates.
(§1) To examine whether the immune response induced by one single injection of peptide with oligo-dIC/pR is systemic, the rest of the mice (4 mice/group) was investigated at selected time points after injection for the presence of peptide-specific IFN-γ-producing T cells in spleen or peripheral blood using an IFN-γ ELISPOT assay. Results are expressed as the number of spots/1×10^6 cells±SD of duplicates.

[2] = system: OVA257-264-peptide-specific IFN-γ-producing T cells; test: IFN-γ ELISPOT of draining lymph node cells after injection of OVA257-264-peptide mixtures; type: in vivo, mice (C57B1/6); conditions: Example 11; day 4; peptide 300 μg, oligo-dIC26-mer 5 nmol, pR 100 μg/mouse; footpad
Experimental: Experimental Groups (4 Mice Per Group) • 1. OVA257-264-peptide+pIC+pR • 2. OVA257-264-peptide+pIC • 3. OVA257-264-peptide+pR On day 0 mice were injected into each hind footpad with a total volume of 100 μl (50 μl per footpad) containing the above mentioned compounds. Animals were sacrificed 4 days after injection and popliteal lymph nodes were harvested. Single cell suspensions were prepared by mincing lymph nodes through a 70 μm cell strainer. Thereafter, cells were washed twice with DMEM medium (Life Technologies) containing 5% fetal calf serum (FCS, SIGMA Chemicals). Cells were adjusted to 10^7 cells/ml in DMEM/5% FCS. IFN-γ ELISPOT assays were carried out in triplicates as described (Miyahira et al., 1995). […] Spots were counted using a Biosys reader (Biosys, Germany). […] The Results are expressed as the number of spots/1×10^6 unseparated cells±SD of triplicates.

[3] = system: peptide-specific IFN-γ-producing T cells in peripheral blood; test: IFN-γ ELISPOT of peripheral blood leukocytes after injection of ovalbumin (OVA) mixtures; type: in vivo, mice (C57B1/6); conditions: Example 12, FIG. 12B; PBLs re-stimulated with OVA257-264-peptide; selected time points after one single injection
Excerpt: as §1, with “To further examine whether” for “To examine whether”, “injection of OVA protein with oligo-dIC/pR” for “injection of peptide with oligo-dIC/pR”, “cells in peripheral blood” for “cells in spleen or peripheral blood”

[4] = system: OVA-specific T cells; test: IFN-γ ELISPOT of draining lymph node cells after injection of ovalbumin (OVA) mixtures; type: in vivo, mice (C57B1/6); conditions: Example 12, FIG. 12A; OVA 50 μg, oligo-dIC26-mer 5 nmol, pR 100 μg/mouse; footpad; day 4 LN
Experimental: Experimental Groups (4 Mice Per Group) • 1. OVA257-264-peptide+pIC+pR • 2. OVA257-264-peptide+pIC • 3. OVA257-264-peptide+pR On day 0 mice were injected into each hind footpad with a total volume of 100 μl (50 μl per footpad) containing the above mentioned compounds. Animals were sacrificed 4 days after injection and popliteal lymph nodes were harvested. Single cell suspensions were prepared by mincing lymph nodes through a 70 μm cell strainer. Thereafter, cells were washed twice with DMEM medium (Life Technologies) containing 5% fetal calf serum (FCS, SIGMA Chemicals). Cells were adjusted to 10^7 cells/ml in DMEM/5% FCS. […] This method is a widely used procedure for the quantification of antigen-specific T cells. […] Spots were counted using a Biosys reader (Biosys, Germany). […] The Results are expressed as the number of spots/1×10^6 unseparated cells±SD of triplicates. […]
Experimental Groups (4 Mice Per Group) • 1. […] Results are expressed as the number of spots/1×10^6 cells±SD of triplicates. […] Importantly, the IFN-γ production was detected not only upon the re-stimulation with the whole OVA protein but also with both, MHC class I (OVA257-264)- and II (OVA265-280)-restricted OVA-derived epitopes (FIG. 9).
Experimental Groups (8 Mice Per Group) • 1. […] Results are expressed as the number of spots/1×10^6 cells±SD of triplicates.

[5] = system: human monocyte-derived DCs; test: In vitro phenotypic maturation of DCs, surface molecules by flow cytometry; type: cell-based; conditions: 48 hours; for phenotypic maturation of DCs (overall): each 10 μg/ml, LPS 1 μg/ml as control
[6] = Example 10, FIG. 10, 10 μg/ml, day 6-cultured DCs, vs untreated DCs

OVA257–264-Peptide (SIINFEKL) [OVA257-264-peptide]
systemic response (peptide-specific IFN-γ-producing T cells in spleen or peripheral blood) [1]: could not be observed
local antigen-specific response in draining lymph node cells [2]: could not be observed

OVA: Ovalbumin from chicken egg, grade V, SIGMA Chemicals, A-5503
systemic response (peptide-specific IFN-γ-producing T cells in peripheral blood) [3]: could not be observed
local antigen-specific T cell response in lymph node cells [4]: could not be observed

Poly-L-arginine [pR]
phenotypic maturation of DCs (overall) ([5]; Example 10, FIG. 10): None of the above described phenotypic changes could be observed

Polyinosinic-polycytidylic acid [pIC]
expression of CD1a molecules [5, 6]: down-regulation
expression of CD86 and the maturation marker CD83 [5, 6]: de-novo expression
expression of HLA-DR, -DQ and HLA-I molecules, CD40, CD54, CD80 [5, 6]: up-regulation
phenotypic maturation of DCs (overall) ([5]; Example 10, FIG. 10): comparable to that induced by LPS
expression of CD11a, CD11c, CD13, CD25, CD29 and CD50 antigens ([5]; Example 10, 10 μg/ml, day 6-cultured DCs): slight up-regulation
